# Assay results as given in patent US12410160B2 (Gilead Sciences, Inc., priority 2021, dated 2025).
# Columns and labels:
# human KHK-C = human KHK-C (Homo sapiens (Human), UniProt P50053); experiment: KHK Biochemical Assay (IC50), ADP-Glo, KHK-C; conditions: ADP-Glo; average of at least two separate assays
# How it was run: (§1)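 ADP-Glo luminescence measured ADP made over a 4 h room-temperature reaction of ATP plus fructose, started after 30 min compound–enzyme pre-incubation. Buffer: 50 mM Hepes pH 7.4, 140 mM KCl, 5 mM MgCl2, 0.01% Triton-X. Enzyme was His-tagged, BL21 (DE3)-expressed, Ni-NTA-purified; compounds in 1:3 DMSO dilution series.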
# human KHK-A = human KHK-A (Homo sapiens (Human), UniProt P50053); experiment: KHK Biochemical Assay (IC50), ADP-Glo, KHK-A; conditions: ADP-Glo; average of at least two separate assays
# Chain of human KHK-A (P50053 other isoform, or with tags, fused parts or gaps): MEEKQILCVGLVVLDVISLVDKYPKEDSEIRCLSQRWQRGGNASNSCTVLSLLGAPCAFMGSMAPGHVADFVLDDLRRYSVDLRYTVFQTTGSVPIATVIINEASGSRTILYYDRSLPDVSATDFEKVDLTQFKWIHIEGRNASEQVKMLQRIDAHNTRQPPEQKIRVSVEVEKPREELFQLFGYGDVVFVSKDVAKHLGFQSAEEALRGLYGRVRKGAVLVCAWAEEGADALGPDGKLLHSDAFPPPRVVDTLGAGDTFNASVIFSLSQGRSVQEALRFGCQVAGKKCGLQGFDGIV
# How it was run: as §1
# [1] = target: KHK-C expressed in NRK-52E cells (Homo sapiens (Human), UniProt P50053); experiment: KHK-C Cell-based Assay (EC50), NRK CTG, fructose-mediated ATP-depletion
# Chain of KHK-C expressed in NRK-52E cells (P50053 whole entry): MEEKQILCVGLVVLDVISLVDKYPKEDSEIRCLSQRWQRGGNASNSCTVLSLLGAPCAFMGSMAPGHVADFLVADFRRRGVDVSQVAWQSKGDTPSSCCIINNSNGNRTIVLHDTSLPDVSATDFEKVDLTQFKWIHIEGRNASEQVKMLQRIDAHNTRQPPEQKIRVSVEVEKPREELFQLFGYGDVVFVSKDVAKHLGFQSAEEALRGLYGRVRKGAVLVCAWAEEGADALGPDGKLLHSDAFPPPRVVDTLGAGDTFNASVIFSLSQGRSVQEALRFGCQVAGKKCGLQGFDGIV
# Chain of human KHK-C (P50053 whole entry): as above
Structure (SMILES),IC50 (human KHK-C) [nM],IC50 (human KHK-A) [nM],EC50 [1] [nM]
"CC(O)c1cccc(-c2nc(N3CC[C@@H]3C)nc3c2CCC3)c1 (stereo partly drawn) [Example 276, 1-(3-(2-((S)-2-methylazetidin-1-yl)-6,7-dihydro-5H-cyclopenta[d]pyrimidin-4-yl)phenyl)ethan-1-ol]",69.5,66.6,110
"C[C@H]1CCN1c1nc2c(c(-c3cccc(CNS(C)(=O)=O)c3)n1)CCC2 [Example 277, (S)—N-(3-(2-(2-methylazetidin-1-yl)-6,7-dihydro-5H-cyclopenta[d]pyrimidin-4-yl)benzyl)methanesulfonamide]",15.3,11.9,26.7
C[C@H]1[C@H](F)CN1c1nc2c(c(-c3cccc(CNS(C)(=O)=O)c3)n1)CCC2 [Example 284],16.4,21.8,55.7
C[C@H]1[C@H](O)CN1c1nc2c(c(-c3ccc4c(c3)CCNC4=O)n1)CCC2 [Example 288],44.3,103,108
C[C@H]1[C@H](F)CN1c1nc2c(c(-c3ccc4c(c3)CCNC4=O)n1)CCC2 [Example 289],17.5,57.9,34.5
"C[C@H]1[C@H](F)CN1c1nc2c(c(-c3cccc(NS(C)(=O)=O)c3)n1)CCC2 [Example 290, N-(3-(2-((2S,3R)-3-fluoro-2-methylazetidin-1-yl)-6,7-dihydro-5H-cyclopenta[d]pyrimidin-4-yl)phenyl)methanesulfonamide]",30.9,50.5,71.3
"C[C@H]1CCN1c1nc2c(c(-c3ccc(C(N)=O)c(Cl)c3)n1)CCC2 [Example 303, (S)-2-chloro-4-(2-(2-methylazetidin-1-yl)-6,7-dihydro-5H-cyclopenta[d]pyrimidin-4-yl)benzamide]",49.7,29.7,91.5
C[C@H]1[C@H](O)CN1c1nc2c(c(-c3ccc(C(N)=O)c(F)c3)n1)CCC2 [Example 307],69.9,86.5,166
C[C@H]1[C@H](O)CN1c1nc2c(c(-c3ccc(C(N)=O)c(Cl)c3)n1)CCC2 [Example 308],97.5,130,294
"COc1cc(-c2nc(N3CC[C@@H]3C)nc3c2CCC3)ccc1C(N)=O [Example 309, (S)-2-methoxy-4-(2-(2-methylazetidin-1-yl)-6,7-dihydro-5H-cyclopenta[d]pyrimidin-4-yl)benzamide]",17.4,19,15.8
"COc1cc(-c2nc(N3CC[C@@H]3C)nc3c2CCC3)ccc1C#N [Example 310, (S)-2-methoxy-4-(2-(2-methylazetidin-1-yl)-6,7-dihydro-5H-cyclopenta[d]pyrimidin-4-yl)benzonitrile]",555,449,1810
"C[C@H]1CCN1c1nc2c(c(-c3ccc(C4(NC(=O)OC(C)(C)C)CCC4)cc3)n1)CCC2 [Example 311, (S)-tert-butyl (1-(4-(2-(2-methylazetidin-1-yl)-6,7-dihydro-5H-cyclopenta[d]pyrimidin-4-yl)phenyl)cyclobutyl)carbamate]",> 5000,> 5000,915
"C[C@H]1CCN1c1nc2c(c(-c3ccc(C#N)c(F)c3)n1)CCC2 [Example 313, (S)-2-fluoro-4-(2-(2-methylazetidin-1-yl)-6,7-dihydro-5H-cyclopenta[d]pyrimidin-4-yl)benzonitrile]",1150,1030,2080
"C[C@H]1CCN1c1nc2c(c(-c3ccc(C#N)c(Cl)c3)n1)CCC2 [Example 314, (S)-2-chloro-4-(2-(2-methylazetidin-1-yl)-6,7-dihydro-5H-cyclopenta[d]pyrimidin-4-yl)benzonitrile]",1940,2020,4490
"C[C@H]1CCN1c1nc2c(c(-c3cc(F)c(C(N)=O)c(F)c3)n1)CCC2 [Example 315, (S)-2,6-difluoro-4-(2-(2-methylazetidin-1-yl)-6,7-dihydro-5H-cyclopenta[d]pyrimidin-4-yl)benzamide]",34,31.5,57.3
"C[C@H]1CCN1c1nc2c(c(-c3ccc(C(N)=O)c(C(F)(F)F)c3)n1)CCC2 [Example 316, (S)-4-(2-(2-methylazetidin-1-yl)-6,7-dihydro-5H-cyclopenta[d]pyrimidin-4-yl)-2-(trifluoromethyl)benzamide]",42.9,19,35

Structure (SMILES),IC50 (human KHK-C) [nM],IC50 (human KHK-A) [nM],EC50 [1] [nM]
"CCOc1cc(-c2nc(N3CC[C@@H]3C)nc3c2CCC3)ccc1C(N)=O [Example 319, (S)-2-ethoxy-4-(2-(2-methylazetidin-1-yl)-6,7-dihydro-5H-cyclopenta[d]pyrimidin-4-yl)benzamide]",20.9,25,37.3
"C[C@H]1CCN1c1nc2c(c(-c3ccc(C(N)=O)c(NS(C)(=O)=O)c3)n1)CCC2 [Example 320, (S)-4-(2-(2-methylazetidin-1-yl)-6,7-dihydro-5H-cyclopenta[d]pyrimidin-4-yl)-2-(methylsulfonamido)benzamide]",244,210,638
"C[C@H]1CCN1c1nc(-c2cccc(S(N)(=O)=O)c2)c2c(n1)C(F)(F)CC2 [Example 321, (S)-3-(7,7-difluoro-2-(2-methylazetidin-1-yl)-6,7-dihydro-5H-cyclopenta[d]pyrimidin-4-yl)benzenesulfonamide]",4.4,4.8,7.3
"C[C@H]1CCN1c1nc(-c2cccc(CNS(C)(=O)=O)c2)c2c(n1)C(F)(F)CC2 [Example 323, (S)—N-(3-(7,7-difluoro-2-(2-methylazetidin-1-yl)-6,7-dihydro-5H-cyclopenta[d]pyrimidin-4-yl)benzyl)methanesulfonamide]",4.2,4.7,16.1
"CNCc1cccc(-c2nc(N3CC[C@@H]3C)nc3c2CCC3)c1 [Example 330, N-methyl-1-[3-[2-[(2S)-2-methylazetidin-1-yl]-6,7-dihydro-5H-cyclopenta[d]pyrimidin-4-yl]phenyl]methanamine]",19.2,22.4,13.1
"C[C@H]1CCN1c1nc(-c2ccccc2)c2c(n1)[C@@H]1C[C@@H]1C2 [Example 333, (5aR,6aR)-2-((S)-2-methylazetidin-1-yl)-4-phenyl-5,5a,6,6a-tetrahydrocyclopropa[4,5]cyclopenta[1,2-d]pyrimidine]",1310,1310,1130
"C[C@H]1CCN1c1nc2c(c(-c3cccc(CN4CCCCC4)c3)n1)CCC2 [Example 345, 2-[(2S)-2-methylazetidin-1-yl]-4-[3-(1-piperidylmethyl)phenyl]-6,7-dihydro-5H-cyclopenta[d]pyrimidine]",45.1,12.6,53.7
"C[C@H]1CCN1c1nc2c(c(-c3cccc(CN(C)C)c3)n1)CCC2 [Example 346, N,N-dimethyl-1-[3-[2-[(2S)-2-methylazetidin-1-yl]-6,7-dihydro-5H-cyclopenta[d]pyrimidin-4-yl]phenyl]methanamine]",14.7,16.7,27.5
"C[C@H]1CCN1c1nc2c(c(-c3cccc(CN4CCCC4)c3)n1)CCC2 [Example 348, 2-[(2S)-2-methylazetidin-1-yl]-4-[3-(pyrrolidin-1-ylmethyl)phenyl]-6,7-dihydro-5H-cyclopenta[d]pyrimidine]",22.7,24.2,35.1
"C[C@H]1CCN1c1nc2c(c(-c3cccc(CN4CCOCC4)c3)n1)CCC2 [Example 349, 4-[[3-[2-[(2S)-2-methylazetidin-1-yl]-6,7-dihydro-5H-cyclopenta[d]pyrimidin-4-yl]phenyl]methyl]morpholine]",90.6,79.3,305
"C[C@H]1CCN1c1nc2c(c(-c3cccc(CN4CC(O)C4)c3)n1)CCC2 [Example 350, 1-[[3-[2-[(2S)-2-methylazetidin-1-yl]-6,7-dihydro-5H-cyclopenta[d]pyrimidin-4-yl]phenyl]methyl]azetidin-3-ol]",19.3,16.8,14
"CC(=O)Nc1ccc(-c2nc(N3CC[C@@H]3C)nc3c2CCC3)cc1 [Example 355, N-[4-[2-[(2S)-2-methylazetidin-1-yl]-6,7-dihydro-5H-cyclopenta[d]pyrimidin-4-yl]phenyl]acetamide]",72.7,33.3,92.4
"C[C@H]1CCN1c1nc2c(c(-c3ccc(CN4CC(O)C4)cc3)n1)CCC2 [Example 365, 1-[[4-[2-[(2S)-2-methylazetidin-1-yl]-6,7-dihydro-5H-cyclopenta[d]pyrimidin-4-yl]phenyl]methyl]azetidin-3-ol]",19,27.2,29.3
"C[C@H]1CCN1c1nc2c(c(-c3ccc(CN4CCC4)cc3)n1)CCC2 [Example 366, 4-[4-(azetidin-1-ylmethyl)phenyl]-2-[(2S)-2-methylazetidin-1-yl]-6,7-dihydro-5H-cyclopenta[d]pyrimidine]",86.5,54,75.4
"C[C@H]1CCN1c1nc2c(c(-c3ccc(CO)c(F)c3)n1)CCC2 [Example 370, [2-fluoro-4-[2-[(2S)-2-methylazetidin-1-yl]-6,7-dihydro-5H-cyclopenta[d]pyrimidin-4-yl]phenyl]methanol]",81.7,76.3,117
"C[C@H]1CCN1c1nc2c(c(-c3ccc(CO)cc3)n1)CCC2 [Example 374, [4-[2-[(2S)-2-methylazetidin-1-yl]-6,7-dihydro-5H-cyclopenta[d]pyrimidin-4-yl]phenyl]methanol]",40.4,47.8,73.5
